# Results published in PMC8070745, “FEN1 Blockade for Platinum Chemo-Sensitization and Synthetic Lethality in Epithelial Ovarian Cancers” (Cancers, 2021).
# Experiments:
# Assay type in all cases: cell-based, human
# [1] = test system: A2780cis cells; test: Neutral COMET assay, A2780cis; conditions: combination with cisplatin vs cisplatin or FEN1i monotherapy
# Protocol: (§1) (1:200, ab26343). Infrared dye-labelled secondary antibodies (Li-Cor) [IRDye 800CW Donkey Anti-Rabbit IgG and IRDye 680CW Donkey Anti-Mouse IgG] were incubated at a dilution of 1:10000 for 1 h. Membranes were scanned with a LiCor Odyssey machine (700 and 800 nm) to determine protein expression. ß-Tubulin or ß-actin was used as a loading controls for the whole cell lysates. GADPH and YYI were used as loading controls to cytoplasmic and nuclear fractions, respectively. First incubation was with FEN1 antibody and then imaged. This was followed by incubation with loading control and then imaged for analysis. Bar charts show means of optical density (O.D.) ± S.D and all data is representative of at least three independent experiments. qRT-PCR analysis of FEN1 gene expre ssion: RNA was extracted using the RNeasy Mini Kit (74104, Qiagen) and quantified using a Nanodrop 2000c (Thermo Fisher Scientific). cDNA synthesis was performed using the RT2 First Strand Kit (330404, Qiagen). Real time PCR was carried out on an Applied Biosystems […] FAST cycler.
# (§2) Neutral COMET assay: 1.0x10^5 cells per well were seeded in 6 well tissue culture plates and incubated at 37°C and 5% CO2 overnight. […] Fifty comets were scored per sample using Comet Assay III/IV image analysis software (Perceptive Instruments, Bury St Edmonds, UK). […]
# [2] = test system: A2780cis cells; test: γH2AX analysis, A2780cis; conditions: FEN1i plus cisplatin
# Protocol: (§3) Graphical representation and statistical analysis of mean tail moment was performed in GraphPad Prism 6 (GraphPad, La Jolla, USA). All experiments were done in duplicate three times.
# (§4) γH2AX FACS: For monitoring DNA double strand break accumulation by γH2AX FACS, 1.05×104 Cells/cm2 were seeded in 6-well plates and left overnight at 37°C in a 5% CO 2 atmosphere. Cisplatin (5µM) or FEN1i (10µM) was later added to cells and incubated for 24h and 48h at 37°C in a 5% CO2 atmosphere. Cells were collected by trypsinization, washed […]
# (§5) with ice cold PBS and fixed in 70% ethanol for 1h at -20°C. After removal of the fixative solution by centrifugation, cells were stained with 2 µg/ml of phospho-Histone (γH2AX) Ser139 (16202A, Millipore, UK) to detect DSBs.
# (§6) Cell cycle progression: Cells were treated with 20 µg/ml RNase A (12091021, Invitrogen) and then 10 µg/ml Propidium Iodide (P4170, Sigma Aldrich) was added to determine the cell cycle distribution. The samples were analysed on a Beckman-Coulter FC500 flow cytometer using a 488nm laser for excitation and emission data for PI collected using a 620nm bandpass filter (FL3) and a 525nm bandpass filter (FL1) for FITC-anti-phospho-Histone H2A.X. […]
# (§7) Graphical representation and statistical analysis was performed in GraphPad Prism 7 (GraphPad, La Jolla, USA). […]
# [3] = test system: A2780cis cells; test: Annexin V apoptosis detection, A2780cis; conditions: FEN1i plus cisplatin
# Protocol: (§8) Apoptosis detection: Annexin V detection kit (556547, BD Biosciences) was used to quantify apoptotic cells. Briefly, cells were trypsinized, washed with PBS and the cellular pellet was re-suspended in Anexin Binding Buffer (1×). Following, FITC Anexin V and Propidium Iodide were added to the cells. After incubation, Anexin binding Buffer (1×) was added to each tube. All the samples were analysed on a Beckman-Coulter FC500 flow cytometer. The percentage of apoptotic cells was determined (late apoptotic = FITC-Annexin V positive, PI positive early apoptotic = FITC-Annexin V positive, PI negative; live cells = FITC-Annexin V negative, PI negative) and compared for untreated and treated samples. Graphical representation and statistical analysis was performed in GraphPad Prism 7 (GraphPad, La Jolla, USA).
# (§9) 3D Spheroid assays: A2780_control and A2780 FEN1_ KO as well as A2780cis_control and A2780cis FEN1_ KO cells were seeded at 4500 cells/cm2 density in ultra-low attachment 6-well plates (174932, Thermo Fisher Scientific) and cultured in 3D Tumorsphere Medium (C28070, PromoCell, UK) at 37°C in a 5% CO2 atmosphere. Cells were keep in culture for 7-10 days, toping up with fresh medium every two days until spheroids structures were formed.
# [4] = test system: PEO4 cells; test: γH2AX analysis, PEO4; conditions: FEN1i plus cisplatin
# Protocol: as §3, §4, §5, §6, §7
# [5] = test system: PEO4 cells; test: Cell cycle progression, PEO4; conditions: FEN1i plus cisplatin
# Protocol: as §5, §6
# Graphical representation and statistical analysis was performed in GraphPad Prism 7 (GraphPad, La Jolla, USA).
# as §9
# [6] = test system: PEO1 cells; test: γH2AX analysis, PEO1; conditions: FEN1i monotherapy
# Protocol: as §3, §4, §5, §6, §7
# [7] = test system: PEO1 cells; test: Annexin V apoptosis detection, PEO1; conditions: FEN1i monotherapy
# Protocol: as §8, §9
# [8] = test system: POLβ KO A2780cis cells; test: γH2AX analysis, POLβ KO A2780cis; conditions: FEN1i-treated
# Protocol: as §3, §4, §5, §6, §7
# [9] = test system: FEN1 mRNA in A2780cis cells; test: qRT-PCR FEN1 mRNA expression, A2780cis; conditions: 24 h exposure to cisplatin
# Protocol: as §1, §2
SMILES,DNA breaks (neutral COMET) [1],γH2AX nuclear foci [2],apoptosis [3],γH2AX nuclear foci [4],cell cycle effect [5],γH2AX foci [6],apoptosis [7],DSBs (γH2AX) [8],FEN1 mRNA expression after cisplatin [9]
"Cc1csc2c1c(=O)n(O)c(=O)n2-c1ccccc1 [PTPD, 3-hydroxy-5-methyl-1-phenylthieno [2,3 d]pyrimidine-2,4(1H,3H)-dione]",substantially increased DNA breaks,induced nuclear γH2AX nuclear foci accumulation,accumulation of apoptotic cells,increased nuclear γH2AX nuclear foci accumulation,G2/M cell cycle arrest,increased γH2AX foci accumulation,induction of apoptosis,increased DSBs,
N.N.[Cl][Pt][Cl] [cisplatin],,,,,,,,,increased by day 1 and persisted at least until day 4
